Experimental data as given in article PMC7525492, “Microtiter plate-based antibody-competition assay to determine binding affinities and plasma/blood stability of CXCR4 ligands” (Scientific Reports, 2020).
“And” between values parts separate entries of the source, which are not always exact repeats. Equal entries are not always repeated. Structures can show the parent of a compound that is named as a salt. Where two headings read alike, the source gives them in different places. Bridge positions count the residues as written; N and C are the ends. Square brackets hold non-standard residues; d marks the D form. Ends that are not written are not given here. Peptide text beside a SMILES is read from it. I, II: the chains in the order shown. 2Nal = N[C@@H](Cc1ccc2ccccc2c1)C(=O)O; Lys(iPr) = CC(C)NCCCC[C@H](N)C(=O)O

Legend:
[1] = biological target: C-X-C chemokine receptor type 4 (CXCR4) (human (endogenous in SupT1)) (UniProt P61073)
in vitro = in vitro ADME, human; settings: for half-life at 20 µM: 20 µM in whole EDTA blood of an individual donor, 37 °C, read-out: half-life t1/2 in blood
Procedure: (§1) Compounds were 150-fold diluted in human plasma or whole human blood to reach final concentrations of 20 µM. The t = 0 sample was immediately taken and stored at − 80 °C. Plasma/compound or blood/compound mixture was then transferred to 37 °C and shook at 350 rpm. At given time points samples were taken and stored at − 80 °C. For measuring the functional activity of the plasma/peptide samples, the mixtures were thawed and serially diluted in ice cold PBS (starting with 100% sample). 12G5-APC antibody competition was then performed as described before. Note, that during the competition process the samples are 1:1 diluted with the antibody and the highest plasma concentration on cells was 50%. For blood/peptide functional stability, samples were thawed and centrifuged at 14,000 rpm for 3 min at 4 °C to remove cells and debris. The supernatant was then serially diluted in PBS (starting with 100% sample) and 12G5-antibody competition assay was performed. After the 2 h incubation, the cells were washed by centrifugation (1.300 rpm, 4 °C) and 50 µL of 1-step-Fix/Lyse solution (Thermo Fisher #00-5333-54) was added for 15 min at room temperature. Afterwards cells were washed again and analyzed for bound antibody.
Statistical analysis was performed in GraphPad Prism (version 8.3.0). IC50 and IC90 curves and the areas under the curves (AUC) were determined by nonlinear regression. For half-life calculations, the IC50 values for each time point as well as the AUCs were analyzed and normalized relative to t = 0. Activities were then determined ((IC50 (t = 0) / IC50 (t)) × 100) for each time point and half-lives determined by a One-Phase-Decay model.

[2] = Functional stability in human plasma read out by 12G5 competition; format: in vitro ADME; settings: for half-life at 20 µM: human, plasma, read-out: half-life t1/2 in plasma; for half-life at 20 µM / 12G5-competing activity after incubation in plasma / ability to block 12G5 binding after incubation in plasma / half-life t1/2 in plasma: 37 °C; for 12G5-competing activity after incubation in plasma: 24 h (AMD3100 also 48 h); for ability to block 12G5 binding after incubation in plasma: plasma of the individual donor, up to 24 h
Procedure: as §1, with “The” for “Compounds were 150-fold diluted in human plasma or whole human blood to reach final concentrations of 20 µM. The”, “After the 2 h incubation, the cells were washed by centrifugation (1.300 rpm, 4 °C) and 50 µL of 1-step-Fix/Lyse solution (Thermo Fisher #00-5333-54) was added for 15 min at room temperature.” left out
(§2) Statistical analysis was performed in GraphPad Prism (version 8.3.0). IC50 and IC90 curves and the areas under the curves (AUC) were determined by nonlinear regression.

SupT1 cells [3] = experiment: cells; settings: Homo sapiens, SUP-T1, 4 h, read-out: IC50 Migration
CXCR4-tropic HIV-1 [4] = experiment: microbe, parasite or virus in culture; settings: Human immunodeficiency virus 1, TZM-bl, 72 h, read-out: IC50 HIV-1
[5] = administered AMD3100; cited from earlier work
CXCR4-tropic HIV-1 [6] = settings: TZM-bl cells; for IC50: read-out: IC50 HIV-1
CXCR4 = CXCR4 (Homo sapiens, UniProt P61073); experiment: 12G5 antibody competition assay on SupT1 cells; format: binding; settings: for IC50: APC-labelled 12G5, 2 h at 4 °C, mean ± SEM of 3 assays; for Ki: calculated from IC50 12G5 by Cheng-Prusoff, Kd of 12G5 151.5 pM
Procedure: Compounds were serially diluted in ice cold PBS and 12G5-APC antibody was diluted in cold PBS containing 1% FCS. […] Plates were incubated at 4 °C in the dark for 2 h. Afterwards cells were washed twice by centrifugation with PBS containing 1% FCS and fixed with 2% paraformaldehyde (PFA). During all pipetting steps, plates were kept cool by using a cooling pad. Antibody binding was analyzed by flow cytometry (FACS CytoFLEX; Beckman Coulter) by determination of the mean fluorescence intensity (MFI) of at least 5.000 cells (50.000 cells per well) or 1.000 cells (5.000 cells per well).
Ki calculation3 Ki=IC50/1+L/Kd
For Ki = inhibitory constant; IC50 = half maximal inhibition for 12G5 binding; [L] = 12G5 concentration; Kd = dissociation constant of 12G5.
as §2

CXCR7 = settings: cited from earlier work
[7] = EPI-X4 sandwich ELISA; cited from earlier work
CXCL12 migration = settings: cited from earlier work
SupT1 cells [8] = settings: read-out: IC50 Migration
[9] = biological target: T1, C-X-C chemokine receptor type 4 (CXCR4) (human (endogenous in SupT1), UniProt P61073 1-352); experiment: cell-based or functional assay
[10] = biological target: T1, C-X-C chemokine receptor type 4 (CXCR4); experiment: flow cytometry on cells; competition with APC-labelled anti-CXCR4 antibody 12G5 (0.245 nM final) on SupT1 cells (5000 cells per well for Ki, or 50,000); compounds in PBS, antibody in PBS with 1% FCS; 2 h at 4 °C in the dark; Ki calculated from IC50 by the Cheng-Prusoff transformation with the Kd of 12G5 (151.5 pM); settings: one partner purified
[11] = biological target: T2, C-X-C chemokine receptor type 4 (CXCR4) (human (endogenous in SupT1)), P61073; experiment: as above
T2 chain: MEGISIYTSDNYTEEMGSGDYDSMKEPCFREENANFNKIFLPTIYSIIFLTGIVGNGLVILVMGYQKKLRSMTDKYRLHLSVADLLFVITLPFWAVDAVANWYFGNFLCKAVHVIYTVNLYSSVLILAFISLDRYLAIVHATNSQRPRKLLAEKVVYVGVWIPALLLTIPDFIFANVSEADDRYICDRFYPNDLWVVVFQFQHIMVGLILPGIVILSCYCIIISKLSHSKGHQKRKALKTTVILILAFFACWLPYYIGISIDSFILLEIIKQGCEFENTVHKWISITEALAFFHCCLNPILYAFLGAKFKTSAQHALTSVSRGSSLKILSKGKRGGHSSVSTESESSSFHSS

[12] = biological target: T2, C-X-C chemokine receptor type 4 (CXCR4) …
[13] = 20 µM in plasma of an individual donor
[14] = 20 µM in pooled human plasma (6 donors), from IC50 relative to t = 0, one-phase decay
[15] = 20 µM in pooled human plasma, Fig. 4a
[16] = infection rate after 3 days, mean ± SEM of 3 assays

For “EPI-X4 (Endogenous Peptide Inhibitor of CXCR4)”, the IC50 of inhibition of infection of TZM-bl reporter cells by CXCR4-tropic HIV-1 (NL4-3), β-galactosidase assay [1] was 31400 nM.

For `CC[C@H](C)[C@H](N)C(=O)N[C@H](C(=O)N[C@@H](CCCNC(=N)N)C(=O)N[C@@H](Cc1c[nH]c2ccccc12)C(=O)N[C@@H](CO)C(=O)N[C@@H](CCCCN)C(=O)N[C@@H](CCCCN)C(=O)N[C@H](C(=O)N1CCC[C@H]1C(=O)N[C@@H](CSSC[C@H](NC(=O)[C@@H]1CCCN1C(=O)[C@@H](NC(=O)[C@H](CCCCN)NC(=O)[C@H](CCCCN)NC(=O)[C@H](CO)NC(=O)[C@H](Cc1c[nH]c2ccccc12)NC(=O)[C@H](CCCNC(=N)N)NC(=O)[C@@H](NC(=O)[C@@H](N)[C@@H](C)CC)C(C)C)C(C)C)C(=O)N[C@H](C(=O)N[C@@H](CO)C(=O)O)C(C)C)C(=O)N[C@H](C(=O)N[C@@H](CO)C(=O)O)C(C)C)C(C)C)C(C)C` [EPI-X4 WSC02x2] (I: H-IVRWSKKVPCVS-OH / II: H-IVRWSKKVPCVS-OH; disulfide I:10-II:10; N-terminus and C-terminus assumed), the half-life at 20 µM (in vitro; human) was 1.33 h, the “stability in blood compared to plasma” value (in vitro; human, plasma) was “less stable in blood compared to plasma” and the half-life at 20 µM [2, 13] was roughly 3 h. For the same molecule, the half-life at 20 µM [2, 14] was 3.22 h, the half-life at 20 µM ([2]; human plasma, value in discussion) was greater than 3 h and the “fold more stable than WSC02 in plasma” value ([2]; pooled human plasma, ratio of t1/2) was 19 fold.

In the case of `c1cc(CN2CCCNCCNCCCNCC2)ccc1CN1CCCNCCNCCCNCC1` [AMD3100, AMD3100 octahydrochloride hydrate], the IC50 (SupT1 cells [3]) is given as 60 ± 13 nM, the IC50 (CXCR4-tropic HIV-1 [4]) is given as 36 ± 6 nM and the “fraction bound to plasma proteins” value [5] is given as 58%. The “ability to block 12G5 binding after incubation in whole blood” value (in vitro) was “remained fully active”, the half-life at 20 µM (in vitro; human) was greater than 24 h and the “12G5-competing activity after incubation in plasma” value ([2]; 20 µM in pooled human plasma) was “remained fully active”. For the same molecule, the half-life at 20 µM [2, 13] was greater than 24 h, the half-life at 20 µM [2, 15] was greater than 48 h and the half-life at 20 µM ([2]; 20 µM in pooled human plasma, Fig. S5a, no unit at the value, time axis in min, estimated by eye) was greater than 24 h. The “ability to block 12G5 binding after incubation in plasma” value [2] was “remained fully active”.

In the case of LVRYTKKVPQVSTPTL [EPI-X4], the IC50 (CXCR4-tropic HIV-1 [6]) is reported as 31000 nM, the IC50 (CXCR4-tropic HIV-1 [6]; [16]) is reported as 31400 nM and the IC50 (CXCR4; SupT1 cells) is reported as 1780 ± 162 nM. The Ki (CXCR4) was 677 ± 62 nM, the CXCR7 binding (CXCR7) was “does not bind CXCR7” and the half-life in plasma [7] was 17 min and ~ 17 min. The “IC50 to suppress CXCL12 migration” value (CXCL12 migration) was “median micromolar range” and the half-life at 20 µM [2, 14] was 0.383 h.

Work on `NCCCCN(Cc1nc2ccccc2[nH]1)[C@H]1CCCc2cccnc21` [AMD070] yielded an IC50 (SupT1 cells [3]) of 152 ± 3 nM and an IC50 (CXCR4-tropic HIV-1 [4]) of 23 ± 4 nM.

In the case of `CC(C)NCCCC[C@H](NC(=O)[C@H]1CCC(=O)N[C@@H](Cc2ccccc2)C(=O)N[C@@H](Cc2ccc(O)cc2)C(=O)N[C@@H](CCCCNC(C)C)C(=O)N[C@H](CCCNC(=N)N)C(=O)N[C@@H](Cc2ccc3ccccc3c2)C(=O)NCC(=O)N1)C(N)=O` [LY2510924] (FY[Lys(iPr)][dR][2Nal]G[dE][Lys(iPr)]-NH2; lactam N-7), the IC50 (CXCR4-tropic HIV-1 [6]; [16]) is reported as 8 ± 0.8 nM, the IC50 (CXCR4; SupT1 cells) is reported as 151 ± 78 nM and the Ki (CXCR4) is reported as 58 ± 30 nM. For the same molecule, the IC50 (SupT1 cells [8]; 100 ng/mL CXCL12, 4 h, mean ± SEM of 3 assays) was 66 ± 8 nM.

In the case of `c1cnc(NCc2ccc(CNc3ncccn3)cc2)nc1` [MSX-122], the “effect on CXCR4-tropic HIV-1 infection” value (CXCR4-tropic HIV-1 [6]) is reported as “not affecting”, the “effect on 12G5 binding” value (CXCR4; SupT1 cells) is reported as “did not interfere with 12G5 binding” and the IC50 (CXCR4; SupT1 cells) is reported as greater than 100000 nM. It also gave an IC50 (CXCR4-tropic HIV-1 [4]) greater than 10000 nM.

With `CC1(C)CN2C(CSC(=NC3CCCCC3)NC3CCCCC3)=CSC2=N1` [IT1t] the IC50 (CXCR4-tropic HIV-1 [6]; [16]) was 5 ± 0.9 nM, the IC50 (SupT1 cells [8]) was 230 ± 20 nM and the “ability to block 12G5 binding after incubation in whole blood” value (in vitro) was “moderately impaired”. For the same molecule, the “half-life t1/2 in plasma” value [2, 13] was “ca. 480 min”, the “12G5-competing activity after incubation in plasma” value ([2]; 20 µM in pooled human plasma) was “remained fully active” and the “half-life t1/2 in plasma” value [2, 15] was less than 24 h. For the same molecule, the “ability to block 12G5 binding after incubation in plasma” value [2] was “moderately impaired”.

B1: EPI-X4 WSC02x2 (peptide)
chain: IVRWSKKVPCVS
modifications: also: homodimer via intermolecular disulfide, disulfide at 10, other end not in the chain
For B1, the “IC50 of inhibition of SupT1 cell migration towards CXCL12 (100 ng/mL, transwell); the pair antagonized is CXCL12 with CXCR4” value [9] was 2670 nM, the “IC50 of inhibition of infection of TZM-bl reporter cells by CXCR4-tropic HIV-1 (NL4-3), β-galactosidase assay” value [9] was 254 nM and the IC50 [10] was 182 nM. It also gave a Ki [10] of 69 ± 12 nM.

IVRWSKKVPCVS (modifications not checked) [EPI-X4 WSC02] gave an IC50 [11] of 290 nM, a Ki [11] of 111 nM and an IC50 of inhibition of SupT1 cell migration towards CXCL12 (100 ng/mL, transwell); the pair antagonized is CXCL12 with CXCR4 [12] of 15800 nM. It also gave an IC50 of inhibition of infection of TZM-bl reporter cells by CXCR4-tropic HIV-1 (NL4-3), β-galactosidase assay [12] of 257 nM.
